Key:
[1] = test system: Endocrine-resistant MCF7-ARO cells; assay: 4 day CellTiter-Glo assay in endocrine resistant cells; format: cell-based, human; settings: FIG. 40A
From the text: Endocrine-resistant MCF7-ARO cells were obtained by letrozole dose escalation over about 4 months.

PI3K alpha E545K mutant = PI3K alpha E545K mutant (Homo sapiens, UniProt P42336, E545K); settings: relative to PI3K alpha; Folkes et al (2008); cited from earlier work
PI3K alpha H1047R mutant = PI3K alpha H1047R mutant (Homo sapiens, UniProt P42336, H1047R); settings: relative to PI3K alpha; Folkes et al (2008); cited from earlier work
[2] = test system: MCF-7 neo/HER2 breast cancer tumor xenografts; assay: In vivo mouse tumor xenograft efficacy; set-up: species or system mice
Description: (§1) Xenografts were initiated with cancer cells. […] Volume was calculated using the formula: […]

cancer cell lines = assay: cell proliferation assays across cancer cell lines (FIGS. 1-3, 12); format: cell-based; settings: EC50, cell proliferation assays
From the text: EC50 values were established for the experiments.

[3] = test system: HCC1954.x1 breast tumor xenografts; assay: In vivo mouse tumor xenograft efficacy; set-up: species or system mice; settings: 150 mg/kg; QD x 21; PO
Description: The term uL means microliter.
as §1

MCF7-ARO cells = assay: modulation of PI3K pathway and ER pathway markers and apoptosis induction; format: cell-based, human; settings: Twenty-four hour treatment
From the text: Aromatase-expressing MCF7 cells convert androstenedione to estrogen in culture.

Chain of PI3K alpha E545K mutant (P42336 whole entry E545K): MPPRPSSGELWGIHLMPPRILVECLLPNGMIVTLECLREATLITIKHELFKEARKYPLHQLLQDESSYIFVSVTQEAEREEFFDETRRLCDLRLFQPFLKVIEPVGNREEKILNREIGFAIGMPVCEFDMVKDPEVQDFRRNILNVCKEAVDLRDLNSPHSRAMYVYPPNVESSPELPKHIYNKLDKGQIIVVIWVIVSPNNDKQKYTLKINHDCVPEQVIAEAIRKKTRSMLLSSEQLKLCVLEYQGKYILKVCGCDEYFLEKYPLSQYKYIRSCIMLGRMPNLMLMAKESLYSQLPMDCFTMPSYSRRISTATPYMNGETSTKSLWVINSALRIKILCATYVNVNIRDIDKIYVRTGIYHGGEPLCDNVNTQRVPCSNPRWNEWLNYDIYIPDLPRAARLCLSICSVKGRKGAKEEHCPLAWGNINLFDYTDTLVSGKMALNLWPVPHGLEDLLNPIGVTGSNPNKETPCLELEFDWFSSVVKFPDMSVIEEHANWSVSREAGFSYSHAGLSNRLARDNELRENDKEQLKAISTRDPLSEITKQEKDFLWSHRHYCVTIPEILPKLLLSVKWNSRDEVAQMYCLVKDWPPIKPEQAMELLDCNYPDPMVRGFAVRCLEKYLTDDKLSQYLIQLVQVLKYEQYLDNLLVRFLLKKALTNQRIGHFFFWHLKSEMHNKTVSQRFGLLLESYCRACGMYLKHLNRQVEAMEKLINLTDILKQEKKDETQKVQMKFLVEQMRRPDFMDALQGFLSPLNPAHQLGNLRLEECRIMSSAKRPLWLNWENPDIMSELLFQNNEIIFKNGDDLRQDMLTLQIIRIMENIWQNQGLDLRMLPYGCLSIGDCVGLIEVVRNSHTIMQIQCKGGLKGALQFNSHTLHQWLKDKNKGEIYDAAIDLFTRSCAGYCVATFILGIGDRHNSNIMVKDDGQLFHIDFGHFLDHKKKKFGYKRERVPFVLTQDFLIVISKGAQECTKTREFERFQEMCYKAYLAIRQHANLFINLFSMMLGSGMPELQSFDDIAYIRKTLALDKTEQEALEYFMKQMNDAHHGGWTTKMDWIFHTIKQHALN
Chain of PI3K alpha E545K mutant (P27986 whole entry partner): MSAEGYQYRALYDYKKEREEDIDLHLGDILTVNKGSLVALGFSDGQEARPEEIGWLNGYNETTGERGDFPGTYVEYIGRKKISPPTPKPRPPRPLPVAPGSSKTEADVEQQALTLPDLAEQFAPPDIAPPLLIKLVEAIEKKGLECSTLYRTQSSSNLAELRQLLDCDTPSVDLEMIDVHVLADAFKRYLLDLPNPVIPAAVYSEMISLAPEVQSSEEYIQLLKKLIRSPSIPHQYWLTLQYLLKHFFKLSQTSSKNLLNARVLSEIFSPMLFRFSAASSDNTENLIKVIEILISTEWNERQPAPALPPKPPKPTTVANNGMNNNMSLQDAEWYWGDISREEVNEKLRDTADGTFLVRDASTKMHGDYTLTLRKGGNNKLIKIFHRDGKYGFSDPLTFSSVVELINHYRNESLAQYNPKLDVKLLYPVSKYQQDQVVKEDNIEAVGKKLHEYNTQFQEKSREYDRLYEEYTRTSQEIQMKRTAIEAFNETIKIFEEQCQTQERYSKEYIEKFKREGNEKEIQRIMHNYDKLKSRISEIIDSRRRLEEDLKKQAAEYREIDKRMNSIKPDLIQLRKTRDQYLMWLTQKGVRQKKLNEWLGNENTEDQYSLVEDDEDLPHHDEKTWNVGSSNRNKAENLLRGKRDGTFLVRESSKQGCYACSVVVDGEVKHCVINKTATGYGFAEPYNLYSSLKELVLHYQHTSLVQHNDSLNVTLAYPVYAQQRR
Chain of PI3K alpha H1047R mutant (P42336 whole entry H1047R): as the sequence (P42336 whole entry E545K) above, with K545E, H1047R counted along it
Chain of PI3K alpha H1047R mutant (P27986 whole entry partner): as the sequence (P27986 whole entry partner) above

In the case of C[C@]12CC[C@@H]3c4ccc(O)cc4C[C@@H](CCCCCCCCC[S+]([O-])CCCC(F)(F)C(F)(F)F)[C@H]3[C@@H]1CC[C@@H]2O (some centres unmarked) [fulvestrant, (7a,1713)-7-{9-[(4,4,5,5,5-pentafluoropentyl)sulfinyl]nonyl}estra-1,3,5(10)-triene-3,17-diol], the “resistance of endocrine-resistant cells” value [1] is reported as “resistant”.

For CS(=O)(=O)N1CCN(Cc2cc3nc(-c4cccc5[nH]ncc45)nc(N4CCOCC4)c3s2)CC1 [GDC-0941, 4-(2-(1H-indazol-4-yl)-6-((4-(methylsulfonyl)piperazin-1-yl)methyl)thieno[3,2-d]pyrimidin-4-yl)morpholine, reference compound], the “PI3K alpha E545K mutant” value (PI3K alpha E545K mutant) is given as 1x, the “PI3K alpha H1047R mutant” value (PI3K alpha H1047R mutant) is given as 1x and the “% TGI@ day 21” value ([2]; QD, 150 mg/kg) is given as 80%. For the same compound, the “sensitivity of cancer cell lines with HER2 amplification versus those without HER2 amplification” value (cancer cell lines) was 9 times and the “% TGI@ day 21” value [3] was 90%.

With C=C1C[C@@H]2[C@H](CC[C@]3(C)C(=O)CC[C@@H]23)[C@@]2(C)C=CC(=O)C=C12 [exemestane] the “resistance of endocrine-resistant cells” value [1] was “resistant”.

With N#Cc1ccc(C(c2ccc(C#N)cc2)n2cncn2)cc1 [letrozole, 4,4′-((1H-1,2,4-triazol-1-yl)methylene)dibenzonitrile] the “PI3K and ER pathway markers” value (MCF7-ARO cells) was “increases HER2 and pAkt, but decreases pmTOR and pp 70S6K” and the “resistance of endocrine-resistant cells” value [1] was “resistant”.

For CC(=O)O[C@@]12CO[C@@H]1C[C@H](O)[C@@]1(C)C(=O)[C@H](O)C3=C(C)[C@@H](OC(=O)[C@H](O)[C@@H](NC(=O)OC(C)(C)C)c4ccccc4)C[C@@](O)([C@@H](OC(=O)c4ccccc4)[C@H]21)C3(C)C [Docetaxel, (2R,3S)—N-carboxy-3-phenylisoserine, N-tert-butyl ester, 13-ester with 5,20-epoxy-1,2,4,7,10,13-hexahydroxytax-11-en-9-one 4-acetate 2-benzoate, trihydrate, reference compound], the “% TGI@ day 21” value ([2]; QW, 7.5 mg/kg) was 69%.

In the case of CC/C(=C(\c1ccccc1)c1ccc(OCCN(C)C)cc1)c1ccccc1 [tamoxifen, (Z)-2-[4-(1,2-diphenylbut-1-enyl)phenoxy]-N,N-dimethylethanamine], the “resistance of endocrine-resistant cells” value [1] is reported as “resistant”.

From patent publication US9107926B2, “Mutant selectivity and combinations of a phosphoinositide 3-kinase inhibitor compound and chemotherapeutic agents for the treatment of cancer” (Genentech, Inc., priority 2012, dated 2015)
